# Like-named read-outs stand apart in the source and are kept apart here.
# Experiments:
# HIV-1, strain HTLV-IIIB = format: cell-based; settings: CEM-T4 cells, day 8; PIC 024.4 30% polymer by weight
# Procedure: Dilutions were prepared in culture medium, and the compound was tested at concentrations ranging from 100 μg/ml to 0.003 μg/ml in half-log10 dilutions.
# The assay was done in 96-well tissue culture plates using the CEM-T4 human T-lymphocyte cell line. The culture medium used was RPMI-1640 medium containing 25 mM N-[2-Hydroxyethyl]piperazine-n^1-[2-ethanesulfonic acid] (HEPES, Sigma Chemical Co.) and 2 mM L-glutamine, and supplemented with 10% fetal bovine serum, 2 mM L-glutamine, 50 units of penicillin G per ml, and 50 μg streptomycin sulfate per ml. CEM-T4 cells were treated with polybrene at a concentration of 2 μg/ml, and a 130 μl volume of cells (1×10^4 cells) was dispensed into each well. To one assay plate for each drug a 50 μl volume of each drug dilution (prepared as a 4×concentration) was added to five wells of cells, and the cells were incubated at 37° C. for two hours. […]
# On the eighth day post-infection, the cells in each well were suspended and a 50-μl sample of each cell suspension was transferred to a new 96-well plate for use in the following assay. […] The absorbance at 590 nm was determined for each sample using a Molecular Devices Vmax microplate reader. […] When a dose-dependent effect for either CPE-inhibition or toxicity was seen, values for the 50% effective dose were calculated using the dose-effect analysis software of Chou and Chou (Elsevier-Biosoft).
# HIV-1 14aPre = test: Drug combination studies, neutralization of HIV-1 14aPre; format: cell-based
# gp120/CD4 = molecular target: T1, gp120/CD4 (Homo sapiens, UniProt P01730); test: biochemical; format: binding
# T1 construct: recombinant, soluble four-domain CD4 (sCD4) expressed in insect cells; host or cells: insect cells (sCD4)
# Procedure: Polystyrene 96-well microtiter plates were treated with a 1 μg/ml solution of recombinant, soluble four-domain CD4 (sCD4) expressed in insect cells (100 μl/well) and allowed to incubate for two hours at room temperature. Plates were blocked for two hours at 4° C. with phosphate-buffered saline (PBS) containing 0.05% Tween-20 and 10 mg/ml bovine serum albumin (PBSTB, 200 μl/well), and then washed five times with PBS containing 0.05% Tween-20. Fifty microliters of 60 ng/ml recombinant gp120 (IIIB isolate) and 50 μl of each drug dilution in PBSTB were added to duplicate wells, and the plate was incubated overnight at 4° C. The plate was then washed five times with PBST and treated with a 210 μg/ml solution of monoclonal antibody NEA 9205 (100 gp120-III/well). This antibody recognizes the V3 loop region of gp120-IIIB. After incubation for 2 hours at 4° C., the plate was washed five times with PBST and treated with an anti-mouse IgGl antibody conjugated to alkaline phosphatase. After an additional incubation for 1 hour at 4° C., the plate was washed five times with PBST, treated with a p-nitrophenyl phosphate substrate solution, incubated for about 30 minutes at room temperature, and monitored for color development at 405 nm. […]
# [1] = molecular target: T2, Leu3A binding to recombinant sCD4 (Homo sapiens, UniProt P01730); test: Inhibition of monoclonal antibody Leu3A binding to CD4 (ELISA); settings: antibody 30 ng/ml; read-out: IC50 MAb binding inhibition, Leu3A (converted)
# T2 construct: Plates coated with recombinant, soluble CD4 were treated with antibody
# Procedure: (§1) A panel of related ELISA systems was used to evaluate the effect of test compounds on the binding of various monoclonal antibodies to recombinant sCD4 absorbed on plastic. Two of these antibodies, Leu3A and 19Thy, are directed against gp120 binding site on CD4. […] The ELISA formats were similar to those used to measure gp120 binding to CD4. Plates coated with recombinant, soluble CD4 were treated with antibody (30 ng/ml) and serial dilutions of drug. After incubation and washing, bound antibody was detected using an appropriate isotype-specific anti-immunoglobulin alkaline phosphatase conjugate.
# [2] = molecular target: T3, 19Thy binding to recombinant sCD4 (Homo sapiens, UniProt P01730); test: Inhibition of monoclonal antibody 19Thy binding to CD4 (ELISA); settings: antibody 30 ng/ml; read-out: IC50 MAb binding inhibition, 19Thy (converted)
# T3 construct: Plates coated with recombinant, soluble CD4 were treated with antibody
# Procedure: as §1
# [3] = molecular target: T4, OKT4 binding to recombinant sCD4 (Homo sapiens, UniProt P01730); test: Inhibition of monoclonal antibody OKT4 binding to CD4 (ELISA); settings: antibody 30 ng/ml
# T4 construct: Plates coated with recombinant, soluble CD4 were treated with antibody
# Procedure: as §1
# [4] = molecular target: T5, gp120 binding to CD4 receptor on CEM cells (Homo sapiens, UniProt P01730); format: cell-based; settings: recombinant gp120 (IIIB) 10 nM; PIC 024.4 based on 100% polymer by weight
# T5 construct: the CD4 receptor expressed on the surface of lymphocytic cells; endogenous in cells; host or cells: CEM cells
# Procedure: This assay was used to measure the ability of test compounds to inhibit the binding of recombinant gp120 to the CD4 receptor expressed on the surface of lymphocytic cells. Cells of the CEM line (a CD4+ human T cell leukemia line) were suspended at 3×10^6 cells/ml in RPMI 1640 medium supplemented with 10% fetal bovine serum (FBS) containing 0.002% sodium azide, and 100 μl was aliquoted to individual assay tubes. Serial dilutions of test compound in water were added (10 μl/tube) and the tubes incubated for 2 hours at 25° C. Next, recombinant gp120 (IIIB isolate) diluted in RPMI 1640 buffer was added to a final concentration of 10 nM (1.2 μg/ml) and the tubes incubated overnight at 37° C. Cells were then washed thoroughly with PBS containing 10% FBS and 0.01% sodium azide. V3-specific monoclonal antibody NEA9284 was added to a concentration of 1 μg/ml and incubated for 30 minutes on ice. The cells were washed thoroughly as before and stained with fluorescein-labeled goat anti-mouse immunoglobulin for 30 minutes on ice. The washed cells were analyzed for mean fluorescence on a FACScan™ flow cytometer (Becton Dickinson). Percent inhibition of fluorescence was determined relative to cells that were not treated with drug.
# [5] = molecular target: T6, gp120 binding to CD4 receptor on lymphocytes in whole blood (Homo sapiens, UniProt P01730); format: cell-based; settings: gp120-biotin 10 nM
# T6 construct: the CD4 receptor expressed on the surface of lymphocytes in whole blood; from tissue; host or cells: freshly collected anticoagulated whole blood from normal donors
# Procedure: This assay was used to measure the ability of test compounds to inhibit the binding of recombinant gp120 to the CD4 receptor expressed on the surface of lymphocytes in whole blood. Freshly collected, anticoagulated whole blood from normal donors (100 μl per tube) was treated with test compound and incubated for 2 hours at room temperature. The tubes were then treated with gp120-biotin (American Bio-Technology Products) to a final concentration of 10 nM, and incubated for an additional 3 hours at room temperature. Cells were then stained with fluorescein-labeled streptavidin (Becton Dickinson), treated with lysis buffer (Becton Dickinson), and washed with PBS containing 0.1% azide. Cells were then subjected to flow cytometric analysis on a FACScan™ flow cytometer (Becton Dickinson) and the mean fluorescence for the lymphocyte population was measured. Percent inhibition of fluorescence was determined relative to cells that were not treated with drug.
# gp120 (SF2 isolate)/sCD4 = molecular target: T7, gp120 (SF2 isolate)/sCD4 (Homo sapiens, UniProt P01730); format: binding
# T7 construct: recombinant sCD4 was immobilized to the sensor surface
# Excerpt: This assay provided a direct measure of the ability of test compounds to inhibit the gp120/CD4 binding interaction. The BIAcore™ biosensor (Pharmacia Biosensor) allows for real-time interaction analysis without the need for labeling (Jonsson et al., BioTechniques 11:620-627 (1991); Malmquist, Nature 361:186-198 (1993)). Its operation is based on optical surface plasmon resonance (SPR) for detecting small changes in the refractive index on the surface of a thin gold film coated with a dextran matrix to which one ligand is immobilized. In the experiments described here, recombinant sCD4 was immobilized to the sensor surface by a standard amine coupling chemistry. Recombinant gp120 (SF2 isolate), alone or in the presence of test compound, was passed over the surface, and binding monitored by a change in “resonance units” (RU's). Percent inhibition was determined relative to RU levels observed in the absence of drug. A correction was made to account for the mass of the test article.
# IIIB = settings: cited from earlier work
# monocytotropic isolates = settings: cited from earlier work
# [6] = system: gp120-mediated syncytium formation; test: Inhibition of gp120-mediated syncytium formation (HL2/3 and HeLa-CD4-LTR-β-gal cells); settings: 48 hours; PIC 024.4 based on 100% polymer by weight
# Procedure: The effect of test compound on syncytium formation was evaluated using an assay developed by Dr. George Pavlakis and coworkers (Ciminale, V. et al., AIDS Res. Hum. Retro-viruses 6:1281-1287 (1990)). […] The cultures were then incubated in the presence of drug for 48 hours at 37° C., fixed and stained with X-gal. Blue syncytia were counted using an inverted microscope, and percent inhibition and IC50 values were calculated.
# HIV-1 (JR-CSF) = format: cell-based
# HIV-1 (ADA) = test: microbe, parasite or virus in culture; format: cell-based; settings: Human immunodeficiency virus 1, Monocyte, monocytes
compound,measurement,setting,value
"OC[C@@H]1CC[C@H](n2cnc3c(O)ncnc32)O1 [ddI, 2′,3′-Dideoxyinosine]","Antiviral Activity ID50, IIIB","HIV-1, strain HTLV-IIIB",1.2 µg/mL
same,Table 8 readout of HIV-1 14aPre growth,HIV-1 14aPre; DDI 1.25 μM alone,36.5
same,Table 8 readout of HIV-1 14aPre growth,HIV-1 14aPre; DDI 5 μM alone,11.2
same,Table 8 readout of HIV-1 14aPre growth,HIV-1 14aPre; DDI 10 μM alone,1.2
O=C(O)C1=CC(=C(c2ccc(O)c(C(=O)O)c2)c2ccc(O)c(C(=O)O)c2)C=CC1=O [Aurintricarboxylic acid],IC50,gp120/CD4,~2.37 µM
same,IC50,[1],294 µM
same,IC50,[2],206 µM
same,"IC50 MAb binding inhibition, OKT4",[3],did not affect
dextran sulfate,IC50 gp120/CEM binding inhibition,[4],23 µg/mL
same,IC50 gp120/CD4 binding inhibition (ELISA),"gp120/CD4; recombinant gp120 IIIB, recombinant sCD4, PIC 024.4 based on 100% polymer by weight",inactive
same,IC50 gp120/whole blood binding inhibition,[5],≥ 1000 µg/mL
same,IC50 BIAcore inhibition,gp120 (SF2 isolate)/sCD4,inactive
same,"Antiviral Activity ID50, IIIB",IIIB; AHT 8,8 µg/mL
same,"Antiviral Activity ID50, IIIB",IIIB; TM 11,4 µg/mL
same,activity against many monocytotropic isolates,monocytotropic isolates,inactive
same,IC50 syncytium inhibition (HL2/3),[6],0.9 µg/mL
"Cc1cn([C@H]2C[C@H](N=[N+]=[N-])[C@@H](CO)O2)c(=O)[nH]c1=O [AZT, zidovudine]",p24 levels,"HIV-1 (JR-CSF); 0.004-50 μM, drug added 2 hours prior to infection",substantially reduced
same,"Antiviral Activity ID50, JR-CSF","HIV-1 (JR-CSF); PHA blasts, PIC 024.4 30% polymer by weight",0.001 µg/mL
same,EC50,"HIV-1 (ADA); 168 h, read-out: EC50, Day 7",0.005 µg/mL
same,EC90,"HIV-1 (ADA); 168 h, read-out: EC90, Day 7",0.02 µg/mL
same,EC50,"HIV-1 (ADA); 336 h, read-out: EC50, Day 14",0.003 µg/mL
same,EC90,"HIV-1 (ADA); 336 h, read-out: EC90, Day 14",0.01 µg/mL
same,Table 8 readout of HIV-1 14aPre growth,HIV-1 14aPre; AZT 0.005 μM alone,25
same,Table 8 readout of HIV-1 14aPre growth,HIV-1 14aPre; AZT 0.01 μM alone,17.5
same,Table 8 readout of HIV-1 14aPre growth,HIV-1 14aPre; AZT 0.02 μM alone,9.8
same,IC50 syncytium inhibition (HL2/3),[6],inactive

# From patent US6365625B1, “Compound for inhibiting HIV infectivity” (Procept, Inc., priority 1993, dated 2002)
